According to ChEMBL document CHEMBL1201862, “PubChem BioAssay data set” (2004):
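Assay format: 96-well plates, 48-hour exposure. GI50 is the concentration that inhibits growth by half.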 Activity calls are given as the source filed them. Cut-off read from the data, not from the text of the source: active = GI50 up to about 1.1 µM and inactive = higher. Numbered stars: 1 amine (or outer) side, 2 acyl side, 3 side chain; on linkers, the order of the positions; unused ones are H or OH. Bridge positions count the residues as written; N and C are the ends. Square brackets hold non-standard residues; d marks the D form. Peptide text beside a SMILES is read from it. X58 = COc1c(N[*:1])cccc1C(=O)O[C@H](C(=O)[C@H](C)C(=O)[*:2])C(C)C; X57 = CC(C)C[C@H](C(=O)[*:2])C(C)C(=O)C1CCCN1[*:1]; NMeY = CN[C@@H](Cc1ccc(O)cc1)C(=O)O; Lac = C[C@H](O)C(=O)O

What was measured:
Assay in all cases: DTP human tumour cell line panel, 48 h
NCI/ADR-RES = test system: NCI/ADR-RES
Hs-578T = test system: Hs-578T
M19-MEL = test system: M19-MEL
HOP-18 = test system: HOP-18
DLD-1 = test system: DLD-1
SNB-78 = test system: SNB-78
XF498 = test system: XF498
LXFL 529 = test system: LXFL 529

SMILES | GI50 (NCI/ADR-RES) | GI50 (Hs-578T) | further results
N#C/C(=C\c1ccc(F)cc1)c1nc2ccccc2c(=O)[nH]1 | > 100 µM (inactive) | 79.6 µM (inactive) | 
O=c1[nH]nc(-c2ccccc2)n1/N=C\CC/C=N\n1c(-c2ccccc2)n[nH]c1=O | 38.5 µM (inactive) | 24.9 µM (inactive) | 
N#Cc1c(N)c2c(c(-c3ccccc3)c1-c1ccccc1)C(=O)N(NC(=O)c1ccccc1)C2=O | 89.5 µM (inactive) | 90.6 µM (inactive) | 
CCCCCC(=O)NC(=S)Nc1nnn[nH]1 |  | > 100 µM (inactive) | 
O=C1c2c(Br)sc(Br)c2C(NC(=O)C(F)(F)F)C1O (configuration not stated) | 29.1 µM (inactive) | 32.8 µM (inactive) | 
C/C(C=O)=C/[C@@]1(C)O[C@@H](C)[C@@](C)(O)[C@@H]1O | 21.9 µM (inactive) | 49.5 µM (inactive) | 
COc1ccc(/C(=C/n2ccnc2)C(O)c2ccc(OC)c(OC)c2)cc1OC (configuration not stated) |  |  | GI50 (M19-MEL): > 100 µM (inactive); GI50 (HOP-18): > 100 µM (inactive); GI50 (DLD-1): > 100 µM (inactive)
C=Cn1c([N+](=O)[O-])cnc1/C=C/c1ccc(C(=O)OCCN2CCOCC2)cc1 | > 100 µM (inactive) | 88.1 µM (inactive) | 
CCOC(=O)c1c(-c2ccccc2)c(OC)cn1C | > 10 µM (inactive) | > 10 µM (inactive) | 
C[C@H](C(O)CC(=O)C(C)(C)O)[C@H]1CC[C@@]2(C)[C@@H]3CC[C@H]4C(C)(C)[C@@H](OC5OC(COC6OC(CO)C(O)C(O)C6O)C(O)C(O)C5O)CC[C@]4(C)C3=CC[C@]12C (some centres not stated) |  | > 100 µM (inactive) | 
Cc1ccc(S(=O)(=O)N2CCN3C(=O)c4ccccc4C32c2ccc(F)cc2)cc1 (configuration not stated) | 52 µM (inactive) | > 100 µM (inactive) | 
Cc1ccc2ccc(-c3ccccc3)c3c2c1C(=O)c1ccccc1C3=O |  |  | GI50 (SNB-78): > 100 µM (inactive); GI50 (XF498): 15.8 µM (inactive); GI50 (M19-MEL): 76.2 µM (inactive); GI50 (HOP-18): 54.6 µM (inactive); GI50 (LXFL 529): > 100 µM (inactive); GI50 (DLD-1): > 100 µM (inactive)
CCOC(=O)c1c(SCCCN2CCCCC2)n(-c2ccccc2)c(=S)n(-c2ccccc2)c1=O |  | 20.9 µM (inactive) | 
CC(=O)Nc1ccc(N2C(=O)/C(=C\c3cccc(Oc4ccccc4)c3)S(=O)(=O)C2c2ccccc2)cc1 (configuration not stated) | 37.2 µM (inactive) |  | 
OB(O)c1ccccc1C#Cc1ccccc1B(O)O | 25.5 µM (inactive) | 14.6 µM (inactive) | 
O=C1Nc2ccc(Cl)cc2C(=O)N2CCC[C@@H]12 | > 100 µM (inactive) |  | 
C/C=C1\CN2CCC34c5ccccc5N(C)C35OCC4(C(=O)OC)C1CC25 (configuration not stated) |  | 54.8 µM (inactive) | 
CC(C)(C)OC(=O)NC(CSCc1ccc(C(=O)c2ccccc2)cc1)C(=O)N1CCN(CCCCN2c3ccccc3Sc3cc(N=[N+]=[N-])ccc32)CC1 (configuration not stated) | > 100 µM (inactive) | > 100 µM (inactive) | 
Cc1ccc(/C=C2\N=C(N3CCCCC3)NC2=O)cc1 | 70.8 µM (inactive) | 70.8 µM (inactive) | 
N#Cc1sc2nc3ccccc3n2c1N | > 100 µM (inactive) | 36.2 µM (inactive) | 

SMILES | GI50 (NCI/ADR-RES) | GI50 (Hs-578T) | further results
C=C1C(=O)O[C@@H]2[C@H]1C[C@@H](O)[C@H](C)[C@@](O)(C(=O)/C=C/C)[C@H]2OC(=O)C(C)CC (some centres not stated) | 11 µM (inactive) | 2.72 µM (inactive) | 
N#C/C=C\c1ccc(-c2cc(C(F)(F)F)cc(C(F)(F)F)c2)o1 | 41.6 µM (inactive) | 18.4 µM (inactive) | 
c1ccc(CSC(SCc2ccccc2)c2ccc3c(c2)OCO3)cc1 | > 10 µM (inactive) | > 10 µM (inactive) | 
O=C1/C(=C/c2ccccc2)N=C(c2ccccc2)N1n1c(-c2ccccc2)nc2ccccc2c1=O | 63.8 µM (inactive) | 35.2 µM (inactive) | 
CCOC(=O)c1nc2ccccc2nc1NCc1ccc(OC)c(OC)c1 | > 100 µM (inactive) | 45.9 µM (inactive) | 
COc1cc(CNC(=O)[C@H](Cc2ccc(O)cn2)NC(C)=O)cc(OC)c1 | > 100 µM (inactive) | > 100 µM (inactive) | 
COC1CCCc2c(OC(C)=O)ccc(OC(C)=O)c21 (configuration not stated) |  |  | GI50 (SNB-78): 36 µM (inactive); GI50 (LXFL 529): > 100 µM (inactive)
CCO[C@@]12CCC3CC4CC[C@@](OCC)(O1)C4C32 (some centres not stated) | > 100 µM (inactive) | > 100 µM (inactive) | 
CC(C)N1CN(c2ccccc2)C2(CCN(CCCC(=O)c3ccc(F)cc3)CC2)C1=O | 5.55 µM (inactive) | 16.1 µM (inactive) | 
O=C(O)Cc1cccc2c(=O)c3cccc([N+](=O)[O-])c3oc12 |  | > 100 µM (inactive) | 
CCCCCCCCCCCCCCCCOP(=O)(O)OP(=O)(O)OCC1OC(n2cnc3c(N)ncnc32)C(O)C1O (configuration not stated) | 78.9 µM (inactive) | 43.8 µM (inactive) | 
O=C1C2C3C=CC(C2C(=O)N1COP(=O)(O)O)C1C2C(=O)N(COP(=O)(O)O)C(=O)C2C31 (configuration not stated) |  |  | GI50 (SNB-78): > 100 µM (inactive); GI50 (XF498): > 100 µM (inactive); GI50 (M19-MEL): > 100 µM (inactive); GI50 (HOP-18): > 100 µM (inactive); GI50 (LXFL 529): > 100 µM (inactive); GI50 (DLD-1): > 49.2 µM (inactive)
Oc1ccc2c3c1OC1c4[nH]ncc4C[C@H]4[C@@H](C2)N(CC2CC2)CC[C@]314 (some centres not stated) | > 100 µM (inactive) | > 100 µM (inactive) | 
COC(=O)[C@]1(c2cc3ccccc3[nH]2)CC2CN(C(=O)OCc3ccccc3)C1C=C2OC (some centres not stated) | 38.3 µM (inactive) |  | 
CC(=O)C(CN1C(=O)c2ccccc2C1=O)C(C)=O |  | > 100 µM (inactive) | 
O=C(O)c1ccccc1NS(=O)(=O)c1ccc(Cl)cc1 |  |  | GI50 (SNB-78): > 100 µM (inactive); GI50 (XF498): > 100 µM (inactive); GI50 (M19-MEL): > 100 µM (inactive); GI50 (HOP-18): > 100 µM (inactive); GI50 (LXFL 529): > 100 µM (inactive); GI50 (DLD-1): > 100 µM (inactive)
COc1ccc(-c2nnc3nc4ccccc4n3c2O)cc1 | > 100 µM (inactive) | > 100 µM (inactive) | 
COc1ccc(C[C@H]2C(=O)O[C@H](C)[C@H](NC(=O)[C@@H](CC(C)C)C(C)C(=O)C3CCCN3C(=O)[C@H](C)O)C(=O)Nc3cccc(c3OC)C(=O)O[C@@H](C(C)C)C(=O)[C@H](C)C(=O)N[C@@H](CC(C)C)C(=O)N3CCC[C@H]3C(=O)N2C)cc1 (some centres not stated) (H-[Lac][X57]T[X58]LP[NMeY](Me); ester 3-C) | > 12.5 µM (inactive) | > 12.5 µM (inactive) | 
Cn1ccc2c(c1=O)C(=O)OC2(C)C [CERPEGIN] | > 100 µM (inactive) | > 100 µM (inactive) | 
